The record followed here is ChEMBL document CHEMBL5360667, “Carboxylic Acid-Containing Indanyl Compounds as S1P5 Modulators for Treating Neurodegenerative Diseases” (ACS Med Chem Lett, 2023).

Molecules are shown by their SMILES. A value given as a limit tells only on which side of the number the result lay.

For this assay, the target named is Sphingosine 1-phosphate receptor 5 (Homo sapiens) (UniProt Q9H228). The experiment in a line: Agonist activity at recombinant S1P5 (unknown origin) expressed in CHO cell membranes assessed as increase in [35S]GTPgammaS binding preincubated for 30 mins followed by [35S]GTPgammaS addition and measured after 40 mins by microbeta scintillation counter analysis. The format is functional. The settings on record: Membrane, filed as agonist, time 70.0 min. For orientation: Binding of GTPγS marks nucleotide exchange on a G protein.
Sphingosine 1-phosphate receptor 5 (Homo sapiens), sequence (Q9H228 whole entry): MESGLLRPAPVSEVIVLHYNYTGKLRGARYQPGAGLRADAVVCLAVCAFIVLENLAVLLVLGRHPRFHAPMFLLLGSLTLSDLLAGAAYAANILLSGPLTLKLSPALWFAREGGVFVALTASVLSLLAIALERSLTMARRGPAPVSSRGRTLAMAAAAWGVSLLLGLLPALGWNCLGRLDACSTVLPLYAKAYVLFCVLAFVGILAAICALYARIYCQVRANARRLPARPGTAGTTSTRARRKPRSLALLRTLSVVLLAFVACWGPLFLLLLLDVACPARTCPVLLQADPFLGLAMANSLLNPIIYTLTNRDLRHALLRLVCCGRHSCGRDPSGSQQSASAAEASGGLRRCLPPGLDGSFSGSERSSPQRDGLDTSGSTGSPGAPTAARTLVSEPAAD
On to `Cc1cc(OCc2c(Cl)cccc2Cl)cc2c1C(N1CCC(C(=O)O)CC1)CC2` (stereo unspecified), for which the EC is under 1 nM.

As to `Cc1c(OCc2c(Cl)cccc2Cl)ccc2c1CCC2N1CCC(C(=O)O)CC1` (stereo unspecified), the EC was under 1 nM.

In the case of `O=C(O)C1CN(C2CCc3cc(OCc4cc(F)c(F)cc4F)ccc32)C1` (stereo unspecified), the EC amounted to 1 nM.

For the molecule `O=C(O)C1CCN(C2CCc3c2ccc(OCc2c(Cl)cccc2Cl)c3F)CC1` (stereo unspecified), the EC was under 1 nM.

In the case of `CC(C)Oc1ccc(COc2ccc3c(c2)CCC3N2CC(C(=O)O)C2)cc1C(F)(F)F` (stereo unspecified), the EC came to 1 nM.

For the molecule `O=C(O)C1CN(C2CCc3cc(OCc4ccc(C5CC5)c(C(F)(F)F)c4)ccc32)C1` (stereo unspecified), the EC was determined as 1 nM.
